Data reported in patent publication US20240287080A1 (IDEAYA Biosciences Inc., priority 2021, published 2024).

Target: T1, Pol theta (1-899) (Homo sapiens, UniProt O75417)
T1 construct: Pol theta (1-899) (5 nM) in assay buffer
Test: Pol theta ATPase activity, NADH oxidation-coupled enzymatic assay (ATPase NADH coupling: Standard Screening: hPolQ)
Assay type: biochemical
Details: Pol theta (1-899) 5 nM, NADH oxidation-coupled ATPase assay; compounds of Table 3
Procedure, shortened: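 NADH-coupled ATPase readout: 5 nM Pol theta (1-899) preincubated 15 min with 10-point compound series in Tris pH 7.80, KCl, MgCl2, DTT, BSA, Tween, glycerol, then 100 μM ATP, 300 nM 50-mer poly-dT ssDNA, NADH, PEP, LDH and PK added (stock levels). A340 followed 60 min; slopes fit four-parameter for IC50.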

T1 sequence (O75417 1-899): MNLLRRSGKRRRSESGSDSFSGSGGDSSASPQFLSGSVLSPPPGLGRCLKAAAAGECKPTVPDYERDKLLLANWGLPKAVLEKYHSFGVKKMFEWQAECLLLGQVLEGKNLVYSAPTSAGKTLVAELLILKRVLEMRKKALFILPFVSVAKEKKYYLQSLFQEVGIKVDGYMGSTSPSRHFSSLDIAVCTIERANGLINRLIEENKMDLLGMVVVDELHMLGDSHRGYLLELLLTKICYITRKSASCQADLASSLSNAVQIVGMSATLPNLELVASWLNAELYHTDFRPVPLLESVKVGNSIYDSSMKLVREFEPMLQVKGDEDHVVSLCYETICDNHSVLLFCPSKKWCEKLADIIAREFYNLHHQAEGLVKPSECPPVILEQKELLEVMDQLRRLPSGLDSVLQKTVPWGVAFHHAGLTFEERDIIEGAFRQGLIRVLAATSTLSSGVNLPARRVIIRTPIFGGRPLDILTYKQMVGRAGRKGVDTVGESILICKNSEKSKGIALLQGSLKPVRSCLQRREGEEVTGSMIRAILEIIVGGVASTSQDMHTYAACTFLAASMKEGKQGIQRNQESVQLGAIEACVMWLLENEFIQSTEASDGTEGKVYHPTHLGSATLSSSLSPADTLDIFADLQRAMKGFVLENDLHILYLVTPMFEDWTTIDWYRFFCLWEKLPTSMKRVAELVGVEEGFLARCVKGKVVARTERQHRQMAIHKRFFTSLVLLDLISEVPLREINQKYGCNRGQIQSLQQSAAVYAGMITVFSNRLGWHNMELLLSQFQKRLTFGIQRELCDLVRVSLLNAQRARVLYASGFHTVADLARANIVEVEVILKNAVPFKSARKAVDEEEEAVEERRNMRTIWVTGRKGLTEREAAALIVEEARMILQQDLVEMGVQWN

Row | SMILES | IC50 [µM]
1 | COc1cnc(Br)cc1-c1cc(C)ncc1C(=O)Nc1nnc(O[C@H]2CC[C@H](CO)CC2)s1 [Example 315, 2′-bromo-N-(5-(((1r,4r)-4-(hydroxymethyl)cyclohexyl)oxy)-1,3,4-thiadiazol-2-yl)-5′-methoxy-6-methyl-[4,4′-bipyridine]-3-carboxamide] | ≤ 0.2
2 | COc1cnc(Cl)c(F)c1-c1cc(C)ncc1C(=O)Nc1nnc(O[C@H]2CC[C@H](CO)CC2)s1 [Example 316, 2′-chloro-3′-fluoro-N-(5-(((1r,4r)-4-(hydroxymethyl)cyclohexyl)oxy)-1,3,4-thiadiazol-2-yl)-5′-methoxy-6-methyl-[4,4′-bipyridine]-3-carboxamide] | ≤ 0.2
3 | COc1cnc(Cl)cc1-c1cc(C)ncc1C(=O)Nc1nnc(OCCN(C)CC(F)(F)F)s1 [Example 317, 2′-chloro-5′-methoxy-6-methyl-N-(5-(2-(methyl(2,2,2-trifluoroethyl)amino)ethoxy)-1,3,4-thiadiazol-2-yl)-[4,4′-bipyridine]-3-carboxamide] | ≤ 0.2
4 | COc1nnc(NC(=O)c2cnc(C)cc2-c2cc(Cl)cc3c2OCCN3)s1 [Example 320, 4-(6-chloro-3,4-dihydro-2H-benzo[b][1,4]oxazin-8-yl)-N-(5-methoxy-1,3,4-thiadiazol-2-yl)-6-methylnicotinamide] | ≤ 0.2
5 | COc1nnc(NC(=O)c2cc(N3CCC3)ncc2-c2cc(Cl)ncc2OC)s1 [Example 323, 6-(azetidin-1-yl)-2′-chloro-5′-methoxy-N-(5-methoxy-1,3,4-thiadiazol-2-yl)-[3,4′-bipyridine]-4-carboxamide] | ≤ 0.2
6 | COc1cnc(C)cc1-c1cc(C)ncc1C(=O)Nc1nnc(OC(CC(N)=O)C(F)(F)F)s1 (stereo not drawn) [Example 324, N-(5-((4-amino-1,1,1-trifluoro-4-oxobutan-2-yl)oxy)-1,3,4-thiadiazol-2-yl)-5′-methoxy-2′,6-dimethyl-[4,4′-bipyridine]-3-carboxamide] | ≤ 0.2
7 | COc1cnc(C)cc1-c1cc(C)ncc1C(=O)Nc1nnc(O)s1 [Example 325, N-(5-hydroxy-1,3,4-thiadiazol-2-yl)-5′-methoxy-2′,6-dimethyl-[4,4′-bipyridine]-3-carboxamide] | 1 to 10
8 | COc1nnc(NC(=O)c2cnc(C)cc2-c2cccc(C(=O)O)c2)s1 [Example 326, 3-(5-((5-methoxy-1,3,4-thiadiazol-2-yl)carbamoyl)-2-methylpyridin-4-yl)benzoic acid] | 1 to 10
9 | COc1nnc(NC(=O)c2cnc(C)cc2-c2cc(C#N)cc(OC(F)(F)F)c2)s1 [Example 327, 4-[3-cyano-5-(trifluoromethoxy)phenyl]-N-(5-methoxy-1,3,4-thiadiazol-2-yl)-6-methylpyridine-3-carboxamide] | 1 to 10
10 | COc1nnc(NC(=O)c2cnc(C)cc2-c2ccccc2)s1 [Example 329, N-(5-methoxy-1,3,4-thiadiazol-2-yl)-6-methyl-4-phenylpyridine-3-carboxamide] | 1 to 10
11 | COc1nnc(NC(=O)c2cnc(C)cc2-c2ccc(F)c(OC)c2)s1 [Example 330, 4-(4-fluoro-3-methoxyphenyl)-N-(5-methoxy-1,3,4-thiadiazol-2-yl)-6-methylpyridine-3-carboxamide] | 1 to 10
12 | COc1nnc(NC(=O)c2cnc(C)cc2-c2cccnc2)s1 [Example 331, N-(5-methoxy-1,3,4-thiadiazol-2-yl)-6′-methyl-[3,4′-bipyridine]-3′-carboxamide] | 1 to 10
13 | COc1nnc(NC(=O)c2cnc(C)cc2-c2ccc3c(c2)C(=O)NC3)s1 [Example 332, N-(5-methoxy-1,3,4-thiadiazol-2-yl)-6-methyl-4-(3-oxo-2,3-dihydro-1H-isoindol-5-yl)pyridine-3-carboxamide] | 1 to 10
14 | COc1nnc(NC(=O)c2cnc(C)cc2-c2cc(C(F)(F)F)cc(C(F)(F)F)c2)s1 [Example 333, 4-[3,5-bis(trifluoromethyl)phenyl]-N-(5-methoxy-1,3,4-thiadiazol-2-yl)-6-methylpyridine-3-carboxamide] | 1 to 10
15 | COc1nnc(NC(=O)c2cnc(C)cc2-c2cncc(C#N)c2)s1 [Example 334, 5-cyano-N-(5-methoxy-1,3,4-thiadiazol-2-yl)-6′-methyl-[3,4′-bipyridine]-3′-carboxamide] | 1 to 10
16 | COc1nnc(NC(=O)c2cnc(C)cc2-c2cccc3[nH]ncc23)s1 [Example 335, 4-(1H-indazol-4-yl)-N-(5-methoxy-1,3,4-thiadiazol-2-yl)-6-methylnicotinamide] | 0.5 to 1
17 | COc1nnc(NC(=O)c2cnc(C)cc2-c2cccc(C(=O)N(C)C)c2)s1 [Example 336, 4-[3-(dimethylcarbamoyl)phenyl]-N-(5-methoxy-1,3,4-thiadiazol-2-yl)-6-methylpyridine-3-carboxamide] | 1 to 10
18 | COc1nnc(NC(=O)c2cnc(C)cc2-c2cc(F)cc(F)c2)s1 [Example 337, 4-(3,5-difluorophenyl)-N-(5-methoxy-1,3,4-thiadiazol-2-yl)-6-methylpyridine-3-carboxamide] | 0.5 to 1
19 | COc1nnc(NC(=O)c2cnc(C)cc2-c2ccc3cn[nH]c3c2)s1 [Example 338, 4-(1H-indazol-6-yl)-N-(5-methoxy-1,3,4-thiadiazol-2-yl)-6-methylnicotinamide] | 1 to 10
20 | CNC(=O)c1cncc(-c2cc(C)ncc2C(=O)Nc2nnc(OC)s2)c1 [Example 339, N3′-(5-methoxy-1,3,4-thiadiazol-2-yl)-N5,6′-dimethyl-[3,4′-bipyridine]-3′,5-dicarboxamide] | 1 to 10
21 | COc1nnc(NC(=O)c2cnc(C)cc2-c2cncc(C(N)=O)c2)s1 [Example 340, N3′-(5-methoxy-1,3,4-thiadiazol-2-yl)-6′-methyl-[3,4′-bipyridine]-3′,5-dicarboxamide] | 1 to 10
22 | COc1nnc(NC(=O)c2cnc(C)cc2-c2ccc3nccnc3c2)s1 [Example 341, N-(5-methoxy-1,3,4-thiadiazol-2-yl)-6-methyl-4-(quinoxalin-6-yl)pyridine-3-carboxamide] | 0.5 to 1
23 | COc1nnc(NC(=O)c2cnc(C)cc2-c2cnc(C(F)(F)F)c(F)c2)s1 [Example 342, 5-fluoro-N-(5-methoxy-1,3,4-thiadiazol-2-yl)-6′-methyl-6-(trifluoromethyl)-[3,4′-bipyridine]-3′-carboxamide] | 1 to 10
24 | CNC(=O)c1cccc(-c2cc(C)ncc2C(=O)Nc2nnc(OC)s2)c1 [Example 343, N-(5-methoxy-1,3,4-thiadiazol-2-yl)-6-methyl-4-[3-(methylcarbamoyl)phenyl]pyridine-3-carboxamide] | 1 to 10
25 | COc1nnc(NC(=O)c2cnc(C)cc2-c2cccc(C(=O)NC3CC3)c2)s1 [Example 344, 4-[3(cyclopropylcarbamoyl)phenyl]-N-(5-methoxy-1,3,4-thiadiazol-2-yl)-6-methylpyridine-3carboxamide] | 1 to 10
26 | COc1nnc(NC(=O)c2cnc(C)cc2-c2ccc(OC)c(C#N)c2)s1 [Example 345, 4-(3-cyano-4-methoxyphenyl)-N-(5-methoxy-1,3,4-thiadiazol-2-yl)-6-methylpyridine-3-carboxamide] | 1 to 10
27 | COc1nnc(NC(=O)c2cnc(C)cc2-c2ccc3c(c2)NC(=O)CO3)s1 [Example 346, N-(5-methoxy-1,3,4-thiadiazol-2-yl)-6-methyl-4-(3-oxo-3,4-dihydro-2H-1,4-benzoxazin-6-yl)pyridine-3-carboxamide] | 1 to 10
